Source: US20230313206A1, “System for inducible expression of an adapter in immune cells” (Miltenyi Biotec B.V. & Co. KG, priority 2020, published 2023)

Tests used:
Type in all cases: cell-based
[1] = tested on: PD-1 expression on T cells; assay: PD-1 expression (activation) of anti-His adapter CAR T cells in co-culture with Raji cells and inducible anti-CD19 Fab T cells; settings: adapter CAR T cells (E:T 2:1) and 1E4 inducible T cells, day 2
Method: To set up the co-culture, 1E4 GFP^+ Raji cells were seeded in 50 μL TexMACS medium (Miltenyi Biotec) in a 96-well round-bottom plate. Anti-His Adapter CAR T cells were subsequently added at an E:T ratio of 2:1 in a volume of 50 μL TexMACS medium (Miltenyi Biotec). T cell numbers were adjusted to LNGFR expression implicating equal transduced and total T cell numbers in each well. The number of untransduced T cells was adjusted to total cell numbers. 1E4 anti-CD19 Fab inducible T cells that secrete the adapter molecule, a His-tagged anti-CD19 Fab, upon induction, were added to the respective wells. His-tagged anti-CD19 Fab secretion was induced by the addition of 100 nM 4-OHT (Sigma-Aldrich) in 50 μL TexMACS (Miltenyi Biotec) at the start of the assay. The plate was centrifuged at 300 g for 1 min and incubated at 37° C., 5% C02 for 2 days. Activation of T cells was analyzed by staining the cells of the co-culture with anti-PD-1-PEVio770, CD3-VioBlue, CD8-VioGreen and LNGFR-APC conjugates (Miltenyi Biotec). Therefore, the co-culture plate was centrifuged at 300 g for 5 min and cells were stained with 50 μL staining mixture composed of the PD-1 PE07, conjugate (Miltenyi Biotec) diluted in PEB for 10 min at 4° C. Cells were washed twice with 200 μL PEB (300 g, 5 min). Cells were resuspended in 100 μL PEB for subsequent flow cytometric analysis. […]

[2] = tested on: CD19+ Raji cells; assay: Cytolytic activity of anti-His adapter CAR T cells in co-culture with Raji cells and inducible anti-CD19 Fab T cells; settings: adapter CAR T cells (E:T 2:1) and 1E4 inducible T cells, 6 days
Method: Anti-His Adapter CAR T cell-mediated cytotoxicity against tumor cells was assessed by the quantification of living target cells using the MACSQuant® Analyzer 10 (Miltenyi Biotec). Therefore, 1E4 GFP^+ Raji cells were seeded in 50 μL TexMACS medium (Miltenyi Biotec) in a 96-well round-bottom plate. Anti-His Adapter CAR T cells were subsequently added at an E:T ratio of 2:1 in a volume of 50 μL TexMACS medium (Miltenyi Biotec). T cell numbers were adjusted to LNGFR expression implicating equal transduced and total T cell numbers in each well. The number of untransduced T cells was adjusted to total cell numbers. 1E4 anti-CD19 Fab inducible T cells that secrete the adapter molecule, a His-tagged anti-CD19 Fab, upon induction, were added to the respective wells. His-tagged anti-CD19 Fab secretion was induced by the addition of 100 nM 4-OHT (Sigma-Aldrich) in 50 μL TexMACS (Miltenyi Biotec) at the start of the assay. The plate was centrifuged at 300 g for 1 min and incubated at 37° C., 5% C02. The specific lysis of target cells was determined 6 days after co-culture set-up. […] Next, living target cells were quantified via flow cytometry. […] Living Raji tumor cells were defined as PI^−, GFP^+ cells and specific lysis was calculated according to the following formula: % specific lysis=(1−(Raji cell count [sample]/Raji cell count [target cell]))·100%.

[3] = tested on: drug-inducible T cells; assay: Induction of anti-CD19 Fab-His6 secretion by drug-inducible primary T cells; supernatant stained on CD19+ Raji cells; settings: 4-OHT 0-500 nM
Method: Lentiviral particles encoding for the drug-inducible cassette were manufactured as described in example 1.2. Drug-inducible T cells were generated as described in example 1.3. 1E4 LNGFR positive drug-inducible T cells were seeded in 100 μL TexMACS medium (Miltenyi Biotec) supplemented with IL-7 (Miltenyi Biotec) and IL-15 (Miltenyi Biotec) in a 96 round bottom well plate. Secretion of the His6-tagged anti-CD19 Fab was induced by the addition of different concentrations of 4-OHT (0-500 nM, Sigma-Aldrich) in 100 μL TexMACS medium (Miltenyi Biotec) supplemented with IL-7 (Miltenyi Biotec) and IL-15 (Miltenyi Biotec) to each well. Untransduced T cells constitute the negative control. Cells were incubated at 37° C. and 5% C02. His6-tagged anti-CD19 Fab containing supernatant was harvested 48 h after the induction. CD19^+ Raji cells were subsequently stained using T cell supernatant and anti-His-APC as secondary antibody. Therefore, 1E5 CD19^+ Raji cells were seeded in a 96 round bottom well plate. Cells were pelleted at 300 g for 5 min and stained with 50 μL of the collected T cell supernatant for 10 min at 4° C. […] The determined mean fluorescent intensity in the APC channel was correlated to the Fab concentration by extrapolation from a standard curve. […]

4-hydroxytamoxifen [4-OHT]
4-OHT concentration at which PD-1 expression on T cells was detected [1]: at least 10 nM
4-OHT concentration giving maximal frequency of PD-1 positive cells [1]: at least 50 nM
4-OHT concentration at which specific lysis of CD19+ Raji cells was detected [2]: at least 1 nM
4-OHT concentration giving maximal specific lysis [2]: at least 10 nM
Amount of His6-tagged anti-CD19-Fab in T cell supernatant with increasing 4-OHT concentration ([3]; 48 h, Fab concentration extrapolated from standard curve): increasing amounts of His6-tagged anti-CD19-Fab is detected
Induction of His6-tagged anti-CD19-Fab secretion by inducible T cells ([3]; supernatant harvested 48 h after induction): strictly dependent on the presence of the inducer drug 4-OHT
